# Values of other authors, collected in patent publication US6153738A (priority 1999, dated 2000).
# System: Swiss Webster mice
# Conditions: mouse, in vivo
substance,measurement,value
GCX1 X2 EPWC [contryphan-R],symptomatology after intracranial injection into mice,stiff-tail syndrome
